Experimental data reported in US10023543B2 (CELGENE QUANTICEL RESEARCH, INC., priority 2014, dated 2018).
pIC50: −log10 of the molar value. Read-outs that look alike come from different tables or passages of the source.

Tests used:
Kasumi-1 = Kasumi-1 AML cell line proliferation assay (Cell-MTS assay); type: cell-based; details: Homo sapiens, 168 hours
Text: Colorimetric cellular assay to assess the ability of LSD-1 small molecule inhibitors to effect the proliferation of the established AML cancer cell line Kasumi-1.
This Cell-MTS assay is a 7-day plate based colorimetric assay which quantifies the amount of newly generated NADH in the presence and absence of test compound. These NADH levels are used as a proxy for the quantification of cancer cell proliferation.
The established cancer cell line Kasumi-1 with a verified p53 mutation were purchased from American Type Culture Collection (ATCC) and routinely passaged according to ATCC published protocols. For routine assay these cells were seeded at a density of 20,000 cells per 96-well. […] At the end of this compound incubation period, 80 μl of media is removed and 20 μL of CellTiter 96® AQueous Non-Radioactive Cell Proliferation Assay solution (Promega) is added. The cells are incubated until the OD490 is >0.6. IC50 values are calculated using the IDBS XLfit software package and include background subtracted OD490 values and normalization to DMSO controls.

THP-1 (AML) cells = test: LSD1 CD11b cellular assay (flow cytometry); type: cell-based; details: Homo sapiens, THP-1, 96 h; for pIC50: CD11b expressing cells, 4 days, read-out: THP-1 IC50

SMILES | pIC50 (THP-1 (AML) cells) | pIC50 (Kasumi-1) | IC50 (THP-1 (AML) cells; read-out: THP-1 IC50 (μM))
Cn1c(N2CCC(N)CC2)nc(-c2ccc(C#N)c(F)c2)c(-c2cnn(CC(F)(F)F)c2)c1=O [Example 34, 4-{2-(4-amino-piperidin-1-yl)-1-methyl-6-oxo-5-[1-(2,2,2-trifluoro-ethyl)-1H-pyrazol-4-yl]-1,6-dihydro-pyrimidin-4-yl}-2-fluoro-benzonitrile] | > 7.00 | > 7.00 | –
COc1ccc(-c2c(-c3ccc(C#N)cc3)nc(N3CCC(N)CC3)n(C)c2=O)cn1 [Example 3, 4-[2-(4-amino-piperidin-1-yl)-5-(6-methoxy-pyridin-3-yl)-1-methyl-6-oxo-1,6-dihydro-pyrimidin-4-yl]-benzonitrile] | > 7.00 | > 7.00 | –
Cc1ccc(-c2c(-c3ccc(C#N)cc3)nc(N3CCC(N)CC3)n(C)c2=O)cn1 [Example 4, 4-[2-(4-amino-piperidin-1-yl)-1-methyl-5-(6-methyl-pyridin-3-yl)-6-oxo-1,6-dihydro-pyrimidin-4-yl]-benzonitrile] | > 7.00 | 6.00 to 7.00 | –
COc1ccc(-c2c(-c3ccc(C#N)cc3)nc(N3CCC(N)CC3)n(C)c2=O)cc1F [Example 5] | – | > 7.00 | < 0.1 µM
COc1ccc(-c2c(-c3ccc(C#N)c(F)c3)nc(N3CCCNCC3)n(C)c2=O)cc1F [Example 46, 4-[2-[1,4]diazepan-1-yl-5-(3-fluoro-4-methoxy-phenyl)-1-methyl-6-oxo-1,6-dihydro-pyrimidin-4-yl]-2-fluoro-benzonitrile] | > 7.00 | – | –
COc1ccc(-c2c(-c3ccc(C#N)c(F)c3)nc(N(C)C[C@H]3CCNC3)n(C)c2=O)cc1 [Example 54, 2-fluoro-4-[5-(4-methoxy-phenyl)-1-methyl-2-(methyl-(3S)-pyrrolidin-3-ylmethyl-amino)-6-oxo-1,6-dihydro-pyrimidin-4-yl]-benzonitrile] | > 7.00 | – | –
CN(C)c1ccc(-c2c(-c3ccc(C#N)cc3)nc(N3CCCNCC3)n(C)c2=O)cn1 [Example 67, 4-[2-[1,4]diazepan-1-yl-5-(6-dimethylamino-pyridin-3-yl)-1-methyl-6-oxo-1,6-dihydro-pyrimidin-4-yl]-benzonitrile] | > 7.00 | – | –
CNCC1CN(c2nc(-c3ccc(C#N)c(F)c3)c(-c3ccc(OC)cc3)c(=O)n2C)C1 [Example 70, 2-fluoro-4-[5-(4-methoxy-phenyl)-1-methyl-2-(3-methylaminomethyl-azetidin-1-yl)-6-oxo-1,6-dihydro-pyrimidin-4-yl]-benzonitrile] | > 7.00 | – | –
COc1ccc(-c2c(-c3ccc(C#N)c(F)c3)nc(N3CCC4(CCNC4)CC3)n(C)c2=O)cc1F [Example 22, 4-[2-(2,8-diaza-spiro[4.5]dec-8-yl)-5-(3-fluoro-4-methoxy-phenyl)-1-methyl-6-oxo-1,6-dihydro-pyrimidin-4-yl]-2-fluoro-benzonitrile] | > 7.00 | – | –
Cn1cc2cc(-c3c(-c4ccc(C#N)c(F)c4)nc(N4CCCNCC4)n(C)c3=O)ccc2n1 [Example 66, 4-[2-[1,4]diazepan-1-yl-1-methyl-5-(2-methyl-2H-indazol-5-yl)-6-oxo-1,6-dihydro-pyrimidin-4-yl]-2-fluoro-benzonitrile] | > 7.00 | > 7.00 | –
COc1ccc(-c2c(-c3ccc(C#N)cc3)nc(NC3CCNCC3)n(C)c2=O)cc1F [Example 48, 4-[5-(3-fluoro-4-methoxy-phenyl)-1-methyl-6-oxo-2-(piperidin-4-ylamino)-1,6-dihydro-pyrimidin-4-yl]-benzonitrile] | 6.00 to 7.00 | – | –
COc1c(F)cc(-c2c(-c3ccc(C#N)cc3)nc(N3CCC(N)CC3)n(C)c2=O)cc1F [Example 38, 4-[2-(4-aminopiperidyl)-5-(3,5-difluoro-4-methoxyphenyl)-1-methyl-6-oxohydropyrimidin-4-yl]benzenecarbonitrile] | > 7.00 | – | –
COc1ccc(-c2c(-c3ccc(C#N)cc3)nc(NC[C@@H]3CCNC3)n(C)c2=O)cc1F [Example 45, 4-{5-(3-fluoro-4-methoxy-phenyl)-1-methyl-6-oxo-2-[(3R)-(pyrrolidin-3-ylmethyl)-amino]-1,6-dihydro-pyrimidin-4-yl}-benzonitrile] | 6.00 to 7.00 | – | –
Cn1c(N2CCC(N)CC2)nc(-c2ccc(C#N)cc2)c(-c2cnn(CC(F)(F)F)c2)c1=O [Example 36, 4-{2-(4-amino-piperidin-1-yl)-1-methyl-6-oxo-5-[1-(2,2,2-trifluoro-ethyl)-1H-pyrazol-4-yl]-1,6-dihydro-pyrimidin-4-yl}-benzonitrile] | > 7.00 | > 7.00 | –
COCCOc1ccc(-c2c(-c3ccc(C#N)c(F)c3)nc(N3CCC(N)CC3)n(C)c2=O)cc1 [Example 98, 4-[2-(4-aminopiperidin-1-yl)-5-[4-(2-methoxyethoxy)phenyl]-1-methyl-6-oxopyrimidin-4-yl]-2-fluorobenzonitrile] | > 7.00 | – | –
Cn1c(N2CCC(N)CC2)nc(-c2ccc(C#N)c(F)c2)cc1=O [Example 108, 4-[2-(4-aminopiperidin-1-yl)-1-methyl-6-oxopyrimidin-4-yl]-2-fluorobenzonitrile] | 6.00 to 7.00 | – | –
Cn1cc2cc(-c3c(-c4ccc(C#N)cc4)nc(N4CCC(N)CC4)n(C)c3=O)ccc2n1 [Example 24, 4-[2-(4-aminopiperidyl)-1-methyl-5-(2-methyl(2H-indazol-5-yl))-6-oxohydropyrimidin-4-yl]benzenecarbonitrile] | > 7.00 | > 7.00 | –

Now from value to compound, other results behind:

pIC50 (THP-1 (AML) cells) | SMILES | pIC50 (Kasumi-1) | IC50 (THP-1 (AML) cells; read-out: THP-1 IC50 (μM))
> 7.00 | Cc1ccc(-c2c(-c3ccc(C#N)c(F)c3)nc(N3CCC(N)CC3)n(C)c2=O)cn1 [Example 9] | > 7.00 | –
> 7.00 | COc1ccc(-c2c(-c3ccc(C#N)c(F)c3)nc(N3CCC(N)CC3)n(C)c2=O)cc1 [Example 6, 4-[2-(4-amino-piperidin-1-yl)-5-(4-methoxy-phenyl)-1-methyl-6-oxo-1,6-dihydro-pyrimidin-4-yl]-2-fluoro-benzonitrile] | > 7.00 | –
> 7.00 | Cn1c(N2CCC(N)CC2)nc(-c2ccc(C#N)c(F)c2)c(-c2ccc3c(cnn3C)c2)c1=O [Example 35, 4-[2-(4-amino-piperidin-1-yl)-1-methyl-5-(1-methyl-1H-indazol-5-yl)-6-oxo-1,6-dihydro-pyrimidin-4-yl]-2-fluoro-benzonitrile] | > 7.00 | –
> 7.00 | COc1ccc(-c2c(-c3ccc(C#N)c(F)c3)nc(N3CCC(N)CC3)n(C)c2=O)cn1 [Example 8, 4-[2-(4-amino-piperidin-1-yl)-5-(6-methoxy-pyridin-3-yl)-1-methyl-6-oxo-1,6-dihydro-pyrimidin-4-yl]-2-fluoro-benzonitrile] | > 7.00 | –
> 7.00 | Cn1c(N2CCC(N)CC2)nc(-c2ccc(C#N)c(F)c2)c(-c2ccc3[nH]ncc3c2)c1=O [Example 88, 4-[2-(4-aminopiperidin-1-yl)-5-(1H-indazol-5-yl)-1-methyl-6-oxopyrimidin-4-yl]-2-fluorobenzonitrile] | > 7.00 | –
> 7.00 | Cn1c(N2CCC(N)CC2)nc(-c2ccc(C#N)c(F)c2)c(-c2cc(F)cc(F)c2)c1=O [Example 103, 4-[2-(4-aminopiperidin-1-yl)-5-(3,5-difluorophenyl)-1-methyl-6-oxopyrimidin-4-yl]-2-fluorobenzonitrile] | – | –
> 7.00 | COc1ncc(-c2c(-c3ccc(C#N)c(F)c3)nc(N3CCC(N)CC3)n(C)c2=O)cc1F [Example 26, 4-[2-(4-aminopiperidyl)-5-(5-fluoro-6-methoxy(3-5,6-dihydropyridyl))-1-methyl-6-oxohydropyrimidin-4-yl]-2-fluorobenzenecarbonitrile] | – | –
> 7.00 | Cn1c(N2CCC(N)CC2)nc(-c2ccc(C#N)c(F)c2)c(-c2ccc(F)cc2)c1=O [Example 101, 4-[2-(4-aminopiperidin-1-yl)-5-(4-fluorophenyl)-1-methyl-6-oxopyrimidin-4-yl]-2-fluorobenzonitrile] | – | –
> 7.00 | Cn1c(N2CCC(N)CC2)nc(-c2ccc(C#N)c(F)c2)c(-c2cccc(F)c2)c1=O [Example 102, 4-[2-(4-aminopiperidin-1-yl)-5-(3-fluorophenyl)-1-methyl-6-oxopyrimidin-4-yl]-2-fluorobenzonitrile] | – | –
> 7.00 | Cn1c(N2CCC(N)CC2)nc(-c2ccc(C#N)c(F)c2)c(-c2ccc(N3CCCC3)nc2)c1=O [Example 60, 4-[2-(4-amino-piperidin-1-yl)-1-methyl-6-oxo-5-(6-pyrrolidin-1-yl-pyridin-3-yl)-1,6-dihydro-pyrimidin-4-yl]-2-fluoro-benzonitrile] | – | –
> 7.00 | Cn1c(N2CCC(N)CC2)nc(-c2ccc(C#N)c(F)c2)c(-c2ccc(F)c(F)c2)c1=O [Example 104, 4-[2-(4-aminopiperidin-1-yl)-5-(3,4-difluorophenyl)-1-methyl-6-oxopyrimidin-4-yl]-2-fluorobenzonitrile] | – | –
> 7.00 | Cn1c(N2CCC(N)CC2)nc(-c2ccc(C#N)c(F)c2)c(-c2ccc(N3CCOCC3)nc2)c1=O [Example 68, 4-[2-(4-amino-piperidin-1-yl)-1-methyl-5-(6-morpholin-4-yl-pyridin-3-yl)-6-oxo-1,6-dihydro-pyrimidin-4-yl]-2-fluoro-benzonitrile] | – | –
6.00 to 7.00 | Cc1ccc(-c2c(-c3ccc(C#N)c(F)c3)nc(N3CCC(N(C)C)CC3)n(C)c2=O)cn1 [Example 82, 4-[2-(4-dimethylamino-piperidin-1-yl)-1-methyl-5-(6-methyl-pyridin-3-yl)-6-oxo-1,6-dihydro-pyrimidin-4-yl]-2-fluoro-benzonitrile] | – | –
